The subject of assay [1] is T-cell. As to the kind of experiment: CD25 cell surface staining on T-cells co-stimulated with anti-CD3 and anti-CD28 antibody (Biological Example 2). The settings on record: Homo sapiens, T-cell, primary human total T-cells, baseline = anti-CD3/anti-CD28 stimulated cells without inhibitor, read-out: CD25 staining, Anti-CD3/Anti-CD28 stimulation, fold change over baseline; for fold induction at 0.3 µM: 0.3 μM compound; for fold induction at 1 µM: 1 μM compound; for fold induction at 4 µM: 4 μM compound. In kind it is cell-based, human. The method, boiled down:
(§1)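 Values are fold-change over baseline: readings (IL-2 release, CD25 staining) from inhibitor-treated T-cells divided against untreated cells […]. No detailed procedure stated.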

Another assay has as its target Cbl-b (residues 36-427) (Homo sapiens, UniProt Q13191). As to the kind of experiment: Cbl-b binding assay (SPR, Biacore T200). The settings on record: 20° C., 1:1 binding model. An outline of the steps: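 NeutrAvidin capture chip, 20° C; 50 s injections at 50 μl/min, 90-180 s dissociation; 0.3 M NaCl regeneration. Asterisked column: 50 mM NaCl buffer and 30 nM Src kinase in place of 100 mM NaCl and 60 nM Src kinase. 1:1 fit.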

For assay [2], the system named is T-cell. As to the kind of experiment: CD25 cell surface staining on T-cells stimulated with anti-CD3 antibody alone (Biological Example 2). In kind it is cell-based. The settings on record: primary human total T-cells, baseline = anti-CD3/anti-CD28 stimulated cells without inhibitor, read-out: CD25 staining, Anti-CD3 stimulation, fold change over baseline; for fold induction at 1 µM: 1 μM compound; for fold induction at 8 µM: 8 μM compound.

In assay [3] the target is T1, Cbl-b (Homo sapiens, UniProt Q13191). As to the kind of experiment: Cbl-b inhibition assay (Cbl-b activity assay, FRET, Biological Example 1; 100 mM NaCl, 60 nM Src kinase). In kind it is biochemical. The settings on record: upper bound stated in text lists; read-out: IC50 values in the Cbl-b inhibition assay of Biological Example 1. The method, boiled down: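 Steps: Src kinase phosphorylates N-terminal biotinylated Avi-tagged Cbl-b; phosphorylated Cbl-b binds Bodipy-fluorescein ubiquitin-loaded UbcH5B; streptavidin-terbium on Cbl-b sits close to the fluorescein label, producing FRET. Inhibitors block UbcH5B-Ub binding.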

Assay [4] deals with T-cell. As to the kind of experiment: IL-2 secretion from T-cells co-stimulated with anti-CD3 and anti-CD28 antibody (Biological Example 2). In kind it is cell-based, human. The settings on record: Homo sapiens, T-cell, primary human total T-cells, baseline = anti-CD3/anti-CD28 stimulated cells without inhibitor, read-out: IL-2 secretion, Anti-CD3/Anti-CD28 stimulation, fold change over baseline; for fold induction at 0.3 µM: 0.3 μM compound; for fold induction at 1 µM: 1 μM compound; for fold induction at 4 µM: 4 μM compound. The method, boiled down: as §1

In assay [5] the test system is T-cell. As to the kind of experiment: IL-2 secretion from T-cells stimulated with anti-CD3 antibody alone (Biological Example 2). In kind it is cell-based. The settings on record: primary human total T-cells, read-out: IL-2 secretion, Anti-CD3 stimulation, fold change over baseline; for fold induction at 1 µM: 1 μM compound; for fold induction at 8 µM: 8 μM compound.

For assay [6], the target named is T1, Cbl-b. As to the kind of experiment: Cbl-b activity assay (Cbl-b inhibition assay), TR-FRET of Cbl-b interaction with UbcH5B-Ub. In kind it is biochemical. The settings on record: assay buffer with 100 mM NaCl, 60 nM Src kinase; read-out: Cbl-b activity IC50. The method, boiled down:
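Compound-treated Cbl-b was incubated 1.5 h with Src kinase (60 nM final; 30 nM for asterisked values, which also used 50 mM instead of 100 mM NaCl), 1 mM ATP and 5 mM MgCl2. Binding to fluorescent Ub-loaded UbcH5B (C85K mutant) was then read by TR-FRET after 1 h more.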

Each structure is given as a SMILES string.

Chain of Cbl-b (residues 36-427) (Q13191 36-427): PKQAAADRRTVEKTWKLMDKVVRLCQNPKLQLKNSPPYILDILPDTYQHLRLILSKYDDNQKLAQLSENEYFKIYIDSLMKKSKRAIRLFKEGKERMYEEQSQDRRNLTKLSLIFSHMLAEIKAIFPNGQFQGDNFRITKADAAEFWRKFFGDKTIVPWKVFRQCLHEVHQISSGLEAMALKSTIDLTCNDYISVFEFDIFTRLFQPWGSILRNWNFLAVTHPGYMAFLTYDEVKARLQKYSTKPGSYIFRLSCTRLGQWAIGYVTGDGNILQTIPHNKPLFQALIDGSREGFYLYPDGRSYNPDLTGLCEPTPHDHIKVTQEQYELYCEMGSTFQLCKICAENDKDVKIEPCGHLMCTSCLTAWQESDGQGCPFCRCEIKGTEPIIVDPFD
T1 sequence (Q13191 36-427): as above

Turning to `C[C@H](Cc1nncn1C)c1cccc(N2Cc3c(cc([C@@H](C)N4CC[C@H](F)C4)cc3C(F)(F)F)C2=O)c1` [Compound 403, 6-((R)-1-((S)-3-fluoropyrrolidin-1-yl)ethyl)-2-(3-((R)-1-(4-methyl-4H-1,2,4-triazol-3-yl)propan-2-yl)phenyl)-4-(trifluoromethyl)isoindolin-1-one], the fold induction at 0.3 µM with T-cell [1] lay within 1.01 to 1.3; with T-cell [4] it was 5 to 7.5. Also, the fold induction at 1 µM is 1.01 to 1.3 with T-cell [1], over 1 in the assay with T-cell [2], over 7.5 in the assay on T-cell [4] and 0.151 to 0.2 in the assay on T-cell [5]. Further, the fold induction at 4 µM with T-cell [1] is 1.31 to 1.5; in the assay with T-cell [4] it was over 7.5. The compound further displayed a Kd on Cbl-b (residues 36-427) of under 100 nM. Further, the fold induction at 8 µM with T-cell [2] was over 1; with T-cell [5] it was over 0.201. The IC50 at Cbl-b [3] was at most 100 nM; at Cbl-b [6], under 100 nM.

Take `Cc1conc1C[C@@H](C)c1cccc(N2Cc3c(cc(C(=O)N4CC[C@H](O)C4)cc3C(F)(F)F)C2=O)c1` [Compound 407, 6-((S)-3-Hydroxypyrrolidine-1-carbonyl)-2-(3-((R)-1-(4-methylisoxazol-3-yl)propan-2-yl)phenyl)-4-(trifluoromethyl)isoindolin-1-one]: the fold induction at 0.3 µM was 1.01 to 1.3 in the assay with T-cell [1] and 2.51 to 5 in the assay on T-cell [4]. For the same compound, the fold induction at 1 µM in the assay on T-cell [1] is 1.01 to 1.3; in the assay on T-cell [2], over 1; with T-cell [4], 5 to 7.5; in the assay on T-cell [5], 0.101 to 0.15. Besides, the fold induction at 4 µM in the assay with T-cell [1] is 1.01 to 1.3; with T-cell [4], over 7.5. At Cbl-b (residues 36-427), the Kd was under 100 nM. The figures for the fold induction at 8 µM with T-cell [2] and with T-cell [5] were over 1 and over 0.201, respectively. Further, the half-maximal inhibitory concentration (IC50) at Cbl-b [3] was at most 100 nM; on Cbl-b [6] it was under 100 nM.

Regarding `Cn1cnnc1[C@@H]1C[C@@H]1c1cccc(N2Cc3c(cc(C#N)cc3C(F)(F)F)C2=O)c1` [Compound 408, 2-(3-((1S,2R)-2-(4-methyl-4H-1,2,4-triazol-3-yl)cyclopropyl)phenyl)-3-oxo-7-(trifluoromethyl)isoindoline-5-carbonitrile], the fold induction at 0.3 µM in the assay with T-cell [1] is 1.01 to 1.3; with T-cell [4] it was 1.01 to 2.5. For the same compound, the fold induction at 1 µM in the assay on T-cell [1] was 1.01 to 1.3; in the assay on T-cell [2] it was 0.601 to 0.8; with T-cell [4] it was 1.01 to 2.5; in the assay on T-cell [5], under 0.05. Moreover, the values for the fold induction at 4 µM in the assay with T-cell [1] and with T-cell [4] were 1.01 to 1.3 and 2.51 to 5, respectively. This compound also gave a Kd at Cbl-b (residues 36-427) of 100 to 300 nM. The fold induction at 8 µM was in the range of 0.801 to 1 in the assay with T-cell [2] and 0.101 to 0.15 in the assay on T-cell [5]. The values for the IC50 on Cbl-b [3] and at Cbl-b [6] were at most 300 nM and 100 to 300 nM, respectively.

Take `Cn1cnnc1CC1(c2cccc(N3Cc4c(cc(CN5CCC(F)(F)C5)cc4C(F)(F)F)C3=O)c2)COC1` [Compound 411, 6-((3,3-difluoropyrrolidin-1-yl)methyl)-2-(3-(3-((4-methyl-4H-1,2,4-triazol-3-yl)methyl)oxetan-3-yl)phenyl)-4-(trifluoromethyl)isoindolin-1-one]: the fold induction at 0.3 µM lay in the range of 1.01 to 1.3 in the assay on T-cell [1] and 2.51 to 5 in the assay with T-cell [4]. Also, the fold induction at 1 µM is 1.01 to 1.3 with T-cell [1], over 1 in the assay on T-cell [2], over 7.5 with T-cell [4] and over 0.201 in the assay with T-cell [5]. Besides, the values for the fold induction at 4 µM in the assay with T-cell [1] and in the assay with T-cell [4] were 1.01 to 1.3 and over 7.5, respectively. The compound also showed a Kd at Cbl-b (residues 36-427) of under 100 nM. Further, the fold induction at 8 µM with T-cell [2] was over 1; in the assay on T-cell [5] it was over 0.201. The IC50 on Cbl-b [3] is at most 100 nM; on Cbl-b [6], under 100 nM.

Take `CC(c1cc2c(c(C(F)(F)F)c1)CN(c1cccc([C@H](C)Cc3nncn3C)c1)C2=O)N1CC[C@H](O)C1` (stereo partly drawn) [Compound 416, 6-(1-((S)-3-hydroxypyrrolidin-1-yl)ethyl)-2-(3-((R)-1-(4-methyl-4H-1,2,4-triazol-3-yl)propan-2-yl)phenyl)-4-(trifluoromethyl)isoindolin-1-one]: the fold induction at 0.3 µM with T-cell [1] lay within 1.31 to 1.5; in the assay on T-cell [4] it was 2.51 to 5. The fold induction at 1 µM with T-cell [1] is 1.31 to 1.5; in the assay with T-cell [2] it was over 1; in the assay with T-cell [4] it was over 7.5; with T-cell [5], 0.151 to 0.2. Besides, the values for the fold induction at 4 µM with T-cell [1] and in the assay on T-cell [4] were 1.51 to 1.75 and over 7.5, respectively. Besides, the Kd on Cbl-b (residues 36-427) is under 100 nM. Also, the fold induction at 8 µM in the assay with T-cell [2] was over 1; with T-cell [5] it was over 0.201. Also, the IC50 at Cbl-b [3] was at most 100 nM; on Cbl-b [6], under 100 nM.

As for `C[C@H](Cc1nncn1C)c1cccc(N2Cc3c(cc(CN4CC(O)C(F)(F)C4)cc3C(F)(F)F)C2=O)c1` (stereo partly drawn) [Compound 417, 6-((3,3-difluoro-4-hydroxypyrrolidin-1-yl)methyl)-2-(3-((R)-1-(4-methyl-4H-1,2,4-triazol-3-yl)propan-2-yl)phenyl)-4-(trifluoromethyl)isoindolin-1-one], the results for the fold induction at 0.3 µM in the assay on T-cell [1] and in the assay on T-cell [4] were 1.01 to 1.3 and 2.51 to 5, respectively. Also, the fold induction at 1 µM with T-cell [1] was 1.31 to 1.5; in the assay with T-cell [2], over 1; in the assay with T-cell [4] it was 5 to 7.5; in the assay with T-cell [5], 0.101 to 0.15. For the same compound, the figures for the fold induction at 4 µM in the assay on T-cell [1] and with T-cell [4] were 1.31 to 1.5 and over 7.5, respectively. The Kd at Cbl-b (residues 36-427) was under 100 nM. In addition, the results for the fold induction at 8 µM in the assay on T-cell [2] and with T-cell [5] were over 1 and over 0.201, respectively. Also, the figures for the IC50 at Cbl-b [3] and at Cbl-b [6] were at most 100 nM and under 100 nM, respectively.

As to `C[C@H](Cc1nncn1C)c1cccc(N2Cc3c(cc(CN4C[C@@H](F)[C@@H](O)C4)cc3C(F)(F)F)C2=O)c1` [Compound 418], the fold induction at 0.3 µM lay in the range of 1.01 to 1.3 in the assay on T-cell [1] and 2.51 to 5 with T-cell [4]. Also, the fold induction at 1 µM with T-cell [1] is 1.31 to 1.5; with T-cell [2] it was over 1; in the assay with T-cell [4] it was 5 to 7.5; in the assay with T-cell [5] it was 0.151 to 0.2. In addition, the fold induction at 4 µM in the assay with T-cell [1] is 1.31 to 1.5; with T-cell [4] it was over 7.5. The compound also returned a Kd on Cbl-b (residues 36-427) of under 100 nM. The fold induction at 8 µM with T-cell [2] is over 1; with T-cell [5], over 0.201. Further, the IC50 on Cbl-b [3] is at most 100 nM; at Cbl-b [6], under 100 nM.

Regarding `CC(O)c1cc2c(c(C(F)(F)F)c1)CN(c1cccc([C@H](C)Cc3nncn3C)c1)C2=O` (stereo partly drawn) [Compound 436, 6-(1-hydroxyethyl)-2-(3-((R)-1-(4-methyl-4H-1,2,4-triazol-3-yl)propan-2-yl)phenyl)-4-(trifluoromethyl)isoindolin-1-one], the fold induction at 0.3 µM with T-cell [1] is 1.01 to 1.3; in the assay on T-cell [4] it was 2.51 to 5. Besides, the fold induction at 1 µM in the assay with T-cell [1] was 1.31 to 1.5; with T-cell [2], 0.801 to 1; in the assay with T-cell [4], 5 to 7.5; with T-cell [5], 0.151 to 0.2. The fold induction at 4 µM in the assay with T-cell [1] is 1.31 to 1.5; in the assay with T-cell [4], over 7.5. This compound displayed a Kd at Cbl-b (residues 36-427) of under 100 nM. Moreover, the fold induction at 8 µM with T-cell [2] was over 1; in the assay on T-cell [5], over 0.201. The IC50 on Cbl-b [3] is at most 100 nM; on Cbl-b [6], under 100 nM.

The values are drawn from patent publication US20220324835A1 (Nurix Therapeutics, Inc., priority 2018, published 2022).
